Results: patent publication US20110082098A1, “NOVOBIOCIN ANALOGUES AND TREATMENT OF POLYCYSTIC KIDNEY DISEASE” (UNIVERSITY OF KANSAS, priority 2009, published 2011)
Entries after “also recorded” stand apart in the source; their conditions may differ.

Columns and labels:
murine pkd1-null cells = conditions: cited from earlier work
Pkd1−/− embryonic mice = Pkd1−/− embryonic mice with ADPKD; cited from earlier work
ERK 1/2 = experiment: Inhibition of p-ERK in EGF stimulated ADPKD cells by Western blot; type: cell-based, human; conditions: for decrease in P-Erk (phosphorylation of ERK 1/2): EGF-stimulated ADPKD cells
Description: (§1) Human ADPKD cells were plated at a density of 1×10^5 cells per well in medium containing 1% FBS in a 6-well plate. Cells were serum-starved for 24 hours and treated with 25 ng/ml EGF to stimulate cell proliferation, then treated with increasing concentrations of KU-174. As a control for inhibition of the mTOR pathway, ADPKD cells were stimulated by EGF and treated with Rapamycin or LY294002. After 24 or 48 hours, cytoplasmic protein extracts were prepared by lysing cells in ice-cold lysis buffer (10 mM Tris-Cl pH 7.5, 150 mM NaCl, 2 mM EDTA pH 8.0, 1% Triton X-100, 0.5% NP-40, 25 mM glycerol 2-phosphate, 1 mM sodium orthovanadate, 1 mM phenylmethylsulfonyl fluoride, and 0.1% v/v Sigma protease inhibitor cocktail). Nuclei and other Triton-insoluble components were removed by high speed centrifugation. Protein concentration was measured using the Pierce BCA assay kit. 20 μg total protein was boiled with SDS sample buffer and fractionated on 7.5, 10 or 12.5% SDS-PAGE gels. Proteins were transferred to PVDF membranes and non-specific binding blocked with 5% powdered milk in TBS-T (10 mM Tris-Cl pH 7.5, 150 mM NaCl, and 0.1% Tween 20) for 1 h at room temperature. Blocked membranes were incubated with primary antibodies in 5% powdered milk or 5% BSA (for phospho-proteins) in TBS-T overnight at 4° C. Membranes were then washed three times with TBS-T and incubated with alkaline phosphatase-conjugated secondary antibodies in 5% milk in TBS-T for 30 min at room temperature. The membranes were washed three times with TBS-T, and protein bands were visualized using the CDP-star detection reagent (GE healthcare). Intensity was detected and quantitatively analyzed by the Fluor-S MAX multi-imager system (Bio-Rad).

mTOR pathway = experiment: Inhibition of mTOR pathway in EGF stimulated ADPKD cells by Western blot; type: cell-based, human
Description: as §1
Human ADPKD cells were plated at a density of 1×10^5 cells per well in medium containing 1% FBS in a 6-well plate. Cells were serum-starved for 24 hours and treated with 25 ng/ml EGF to stimulate cell proliferation, then treated with increasing concentrations of KU-174. As a control for inhibition of the mTOR pathway, ADPKD cells were stimulated by EGF and treated with Rapamycin or LY294002, (an inhibitor of phosphoinositide-3-kinases, PI3Ks). After 24 or 48 hours, cells were lysed and 20 μg total cell lysate analyzed by Western blotting. Blots were probed with antibodies against p-Akt (S473), Akt, p-TSC2 (S939), TSC2, p-mTOR (S2448), mTOR, p-S6K (T412 and T389; phospho-p70 S6 Kinase phosphorylated at T389 or T412) and S6K (p70 S6 kinase; p70S6K1). […] In the 1 μM KU-174 treated cell lysates, p-Akt was decreased by 64%, p-mTOR by 56%, and p-S6K isoforms p85 and p70 by 75% compared with control EGF treated cells and normalized with respect to the corresponding total protein (n=3). There was no change in p-TSC2 levels. […] The figures represent results from independent experiments using primary human ADPKD cells from three different kidneys.

[1] = tested on: Pkd1+/− mouse metanephric kidneys; experiment: Metanephric organ culture; conditions: embryonic day 15.5 kidneys, 100 μM cAMP, 10 μM KU-174, four days
From the text: Pkd1^m1Bei mice were obtained from the Mutant Mouse Regional Resource Center (University of North Carolina, Chapel Hill, N.C.) and were stabilized onto a C57BL/6 background (>10 backcrosses). This mouse has a point mutation (T to G at 9248 bp) that causes an M to R substitution that affects the first transmembrane domain of polycystin-1 as described by Herron, B. J., et al., Efficient generation and mapping of recessive developmental mutations using ENU mutagenesis. Nat Genet, 2002. 30(2): p. 185-9.
Mouse metanephric kidneys were cultured according to methods described in Magenheimer, B. S., et al., Early embryonic renal tubules of wild-type and polycystic kidney disease kidneys respond to cAMP stimulation with cystic fibrosis transmembrane conductance regulator/Na(+),K(+),2Cl(−) Co-transporter-dependent cystic dilation. J Am Soc Nephrol, 2006. 17(12): p. 3424-37. Metanephroi were dissected from Pkd1+/− embryonic mice and placed on transparent Falcon […] cell culture inserts. […] Upon culturing (day 0) and approximately 24 h later (day 1) and each day after (days 2 to 4), kidneys were photographed using a 2× or 4× objective, and the images were acquired and analyzed using the analySIS imaging program (Soft Imaging System, Munster, Germany). […]

[2] = tested on: Hsp90 client proteins CFTR, C-Raf, cdk4, ErbB2 and Akt; experiment: Hsp90 client protein levels in EGF stimulated human ADPKD cells by Western blot; type: cell-based
Description: as §1
Proteins from 20 μg total cell lysate were analyzed by Western blotting. Blots were probed with antibodies against Hsp90 and client proteins CFTR, C-Raf, cdk4, ErbB2 and Akt. GAPDH served as the internal control.

[3] = tested on: Human ADPKD cyst-lining epithelial cells; experiment: Cell proliferation assay (Promega Cell Titer 96 MTT); type: cell-based; conditions: 0.1, 0.5, 1 uM KU-174 for 72 h
Description: Primary cultures of human ADPKD cyst-lining epithelial cells were established as described in Yamaguchi, T., et al., Calcium restores a normal proliferation phenotype in human polycystic kidney disease epithelial cells. J Am Soc Nephrol, 2006. 17(1): p. 178-87. Cystic tissue from ADPKD kidneys were minced and digested overnight in DMEM/F12 (1:1) mixture that contained 220 IU/ml type IV collagenase and 100 IU/ml penicillin G and 0.1 mg/ml streptomycin (P/S) (13). Collagenase digestion was stopped by the addition of FBS. […]
The novobiocin analog KU-174 was studied to determine the effect on cAMP and EGF-stimulated proliferation of ADPKD cyst-lining epithelial cells. Cell proliferation was determined by the Promega Cell Titer 96 MTT assay method as described in Yamaguchi, T., et al., Calcium restores a normal proliferation phenotype in human polycystic kidney disease epithelial cells. […] After 72 hours of treatment, cell proliferation was measured by adding the MTT assay reagent and stopping the reaction four hours later. Absorbance was read on a spectrophotometer at 570 nm. Optical densities were measured using a spectrophotometer. In each group, results were expressed as a percentage of the control group (not treated with KU-174).

human ADPKD cells = experiment: Microcyst assay in collagen gel matrix; type: cell-based
Description: Microcyst assay was performed as described previously by Yamaguchi, T., et al., Calcium restores a normal proliferation phenotype in human polycystic kidney disease epithelial cells. J Am Soc Nephrol, 2006. 17(1): p. 178-87. Primary cultures of human ADPKD cells (4×10^3 cells/well) were dispersed within an ice-cold type I collagen matrix (Vitrogen; Collagen Corp., Palo Alto, Calif.) in wells of a 96-well culture plate. Warming the plate to 37° C. caused polymerization of the collagen, trapping the cells within the gel. A defined medium (DMEM/F12 with ITS, 5×10^−8M hydrocortisone, and 5×10^−5 M triiodothyronine) supplemented with 5 μM forskolin and 5 ng/ml EGF was added for 3 days to initiate cyst growth. Forskolin (FSK) is a small molecule agonist of adenylyl cyclase, the enzyme that makes cAMP. Thus, FSK treatment of cells increases the levels of intracellular cAMP. Fresh media containing EGF and forskolin plus 1 μM or 5 μM KU-174 were added for an additional 5-7 days. […] Gels containing cysts were fixed in 1% formaldehyde and cyst diameters were measured using a morphometric analysis system. Outer diameters of cross-sectional images of spherical cysts with distinct lumens were measured using an inverted microscope with a digital camera and video analysis software. The total surface area (SA) of the cysts within each well was calculated from the individual cyst diameters (cysts≧100 μm). KU-174 inhibits microcyst formation by ADPKD cells in a collagen gel matrix.

[4] = 48 h, 1 μM KU-174, compared to control EGF treated cells

CC(C)[C@]12O[C@H]1[C@@H]1O[C@]13[C@]1(O[C@H]1C[C@H]1C4=C(CC[C@@]13C)C(=O)OC4)[C@@H]2O [Triptolide]
cell growth (murine pkd1-null cells): cause cell growth arrest | cyst formation (Pkd1−/− embryonic mice): inhibit cyst formation

COc1cccc(-c2cc(C(=O)Nc3cc4ccc(O[C@@H]5OC(C)(C)[C@H](OC)[C@@H](O)[C@H]5O)c(OC)c4oc3=O)ccc2OC)c1 [KU-174, N-(7-((2S,3R,4S,5R)-3,4-dihydroxy-5-methoxy-6,6-dimethyltetrahydro-2H-pyran-2-yloxy)-8-methoxy-2-oxo-2H-chromen-3-yl)-3′,6-dimethoxybiphenyl-3-carboxamide]
decrease in P-Erk (phosphorylation of ERK 1/2) (ERK 1/2; 0.5 μM KU-174, 48 h): 70% | total Erk levels (ERK 1/2; 0.5 μM and 1 μM KU-174, EGF-stimulated ADPKD cells): remained virtually unchanged | decrease in P-Erk (phosphorylation of ERK 1/2) (ERK 1/2; 1 μM KU-174, 48 h): 80% | inhibition of p-ERK (ERK 1/2; increasing concentrations of KU-174, EGF-stimulated ADPKD cells): dose-dependent inhibition | p-S6K (mTOR pathway; 24 h, 1 μM KU-174): slight decrease | change in phosphoproteins (P-mTOR, P-Akt, P-TSC2, P-S6K) (mTOR pathway; 24 h of treatment, 50 nM to 1 μM KU-174, EGF-stimulated ADPKD cells): no change | decrease in P-Akt (S473) (mTOR pathway; [4]): 64% | decrease in P-S6K (isoforms p85 and p70) (mTOR pathway; [4]): 75% | decrease in P-mTOR (S2448) (mTOR pathway; [4]): 56% | decreasing the phosphoproteins (mTOR pathway; 48 h, both 0.5 and 1 μM KU-174): effective | P-TSC2 (S939) levels (mTOR pathway; EGF-stimulated ADPKD cells, KU-174 up to 1 μM, 48 h): no change | total Akt levels (mTOR pathway; at the concentrations examined (up to 1 μM KU-174)): did not appear to decrease | cyst burden / cyst formation in cAMP-treated metanephric kidneys [1]: reduces the cyst burden; also recorded: reduction in cyst burden; also recorded: reduced cyst formation | total levels of C-Raf ([2]; 24 h, 1 μM KU-174): decreased | total levels of CFTR ([2]; 24 h, 1 μM KU-174): decreased | all the client proteins examined (CFTR, C-Raf, cdk4, ErbB2) ([2]; 48 h, both 0.5 and 1 μM KU-174): effective in decreasing | levels of the Hsp90 client proteins CFTR, ErbB2, c-Raf and Cdk4 ([2]; dose and time-dependent manner, ADPKD cells): decreases | proliferation of EGF-stimulated ADPKD cyst-lining epithelial cells (MTT assay) ([3]; 25 ng/ml EGF): dose-dependent decrease; also recorded: significantly inhibited | proliferation of cAMP-stimulated ADPKD cyst-lining epithelial cells (MTT assay) ([3]; 100 μM cAMP): dose-dependent decrease; also recorded: significantly inhibited | inhibition in cyst growth (total cyst surface area per well) (human ADPKD cells; 1 μM KU-174, EGF and forskolin, p<0.01): significant inhibition | inhibition of cyst-formation induced by EGF and forskolin (human ADPKD cells; 1 μM KU-174, n=6): more than 3 fold | cyst formation (human ADPKD cells; 5 μM KU-174, EGF and forskolin, p<0.01): completely eliminated | microcyst formation by ADPKD cells in a collagen gel matrix (human ADPKD cells; EGF and forskolin, 1 μM or 5 μM KU-174): dose-dependent inhibition; also recorded: reduces; also recorded: inhibits
